Assays:
[1] = molecular target: dipeptidyl aminopeptidase IV (Sus scrofa, UniProt P22411); assay: In vitro stability in dipeptidyl aminopeptidase IV solution; details: pH 8; for half-life at 0.1 mg/ml: isolated enzyme dpp iv
Description: (§1) A SHT200D block heater from Stuart Scientific was used for heating of the peptide/enzyme solutions during the stability experiments. The degradation of the test compounds was studied at 37° C. in 50 mM phosphate buffer solutions of pH 7.4 containing leucine aminopeptidase (25 U/ml) or carboxypeptidase A (1 U/ml) or 100 mM ammoniumbicarbonate buffer of pH 8.0 containing dipeptidyl aminopeptidase IV (0.5 U/ml). Experiments were initiated by addition of an aliquot (100 μl) of a stock solution (1 mg/ml) of the peptide in water to 900 μl preheated enzyme solution in an Eppendorf microvial giving an initial concentration of 0.1 mg/ml (˜1.7·10−5-1.8·10−5 M) of the peptide. The peptide/enzyme solution was kept at 37° C. and at appropriate time intervals samples of 100 μl were withdrawn from the peptide/enzyme solution and mixed thoroughly with 20 μl 25% TFA in acetonitrile in order to stop the enzymatic degradation process. The inactivated samples were transferred to autosampler vials and analysed for content of intact test compound by HPLC as described below.
(§2) Samples from the stability experiments performed as described above were analysed by gradient HPLC analysis using the instrumentation described above and the following experimental conditions.
(§3) In vitro stability studies with the present peptides and peptide conjugates in the presence of selected proteolytic enzymes are applied as a tool for evaluating the protection of said peptides against proteolysis in vivo.
(§4) Water used was of highest quality obtained from a Milli-Q water treatment system (Millipore, Bedford, Mass., U.S.A.). Acetonitrile (ACN) was of super gradient quality obtained from Labscan Ltd. (Dublin, Ireland). […] Leucine aminopeptidase (EC 3.4.11.1), Carboxypeptidase A (EC 3.4.17.1) and Dipeptidyl peptidase (Dipeptidyl aminopeptidase IV, EC 3.4.14.5) were all obtained from Sigma (St. Louis, Mo., U.S.A.). Gradient HPLC analysis was done using a Hewlett Packard HP 1100 HPLC system consisting of a HP 1100 Binary Pump, a HP 1100 Autosampler, A HP 1100 Column Thermostat and a HP 1100 Variable Wavelength Detector. Hewlett Packard Chem-station for LC software (Rev. A.06.01) was used for instrument control and data acquisition. A Vydac 238TP54 (150×4.6 mm I.D.) column packed with 5 μm, C18, 300 Å

carboxypeptidase A = molecular target: T1, carboxypeptidase A (Bos taurus, UniProt P00730); assay: In vitro stability in carboxypeptidase A solution; details: pH 7.4; for half-life at 0.1 mg/ml: isolated enzyme carboxypeptidase
T1 sequence (P00730 111-419): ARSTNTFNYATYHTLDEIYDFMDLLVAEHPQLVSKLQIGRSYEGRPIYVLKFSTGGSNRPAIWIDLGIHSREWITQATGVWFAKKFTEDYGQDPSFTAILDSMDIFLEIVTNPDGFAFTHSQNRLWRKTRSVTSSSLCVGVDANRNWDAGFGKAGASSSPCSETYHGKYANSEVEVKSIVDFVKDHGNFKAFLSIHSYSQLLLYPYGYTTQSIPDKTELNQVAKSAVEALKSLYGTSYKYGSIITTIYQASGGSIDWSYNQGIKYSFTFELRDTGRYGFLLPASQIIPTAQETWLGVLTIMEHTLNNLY
Description: as §1, §2, §3, §4

in vivo = assay: in vivo
Description: Compound 4 (batch No. ZP 7.97-5-F, 4053 g/mol) and Compound (iii) (batch No. ZP 7.73-2-G, 3854 g/mol) were synthesised in-house using the Fmoc strategy.
Plasma (250 μl) was transferred to ice-chilled 0.75 ml PLC vials containing 250 μl extraction solution (MeCN: 0.18 M Ammonium Carbonate pH 9.5, 10:90 v/v). The plasma samples were stored at −20 C until SPE and LC/MS analysis.

leucine aminopeptidase = molecular target: T2, leucine aminopeptidase (Sus scrofa, UniProt P28839); assay: In vitro stability in leucine aminopeptidase solution; details: pH 7.4; for half-life at 0.1 mg/ml: isolated enzyme aminopeptidase
T2 sequence (P28839 1-519): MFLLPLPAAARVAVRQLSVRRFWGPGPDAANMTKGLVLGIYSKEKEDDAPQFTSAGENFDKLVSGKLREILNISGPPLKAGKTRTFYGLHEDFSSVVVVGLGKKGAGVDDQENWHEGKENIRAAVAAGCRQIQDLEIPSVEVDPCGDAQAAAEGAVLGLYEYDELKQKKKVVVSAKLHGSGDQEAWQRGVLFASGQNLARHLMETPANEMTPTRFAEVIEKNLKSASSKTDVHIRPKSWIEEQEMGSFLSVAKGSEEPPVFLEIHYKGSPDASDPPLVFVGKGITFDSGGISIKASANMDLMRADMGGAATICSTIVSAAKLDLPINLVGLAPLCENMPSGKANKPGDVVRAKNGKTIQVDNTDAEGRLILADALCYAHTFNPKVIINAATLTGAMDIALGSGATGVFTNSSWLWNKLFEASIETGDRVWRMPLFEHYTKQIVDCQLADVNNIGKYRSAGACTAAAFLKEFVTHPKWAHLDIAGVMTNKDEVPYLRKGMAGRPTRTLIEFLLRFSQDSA
Description: as §1, §2, §3, §4

Sequence of dipeptidyl aminopeptidase IV (P22411 whole entry): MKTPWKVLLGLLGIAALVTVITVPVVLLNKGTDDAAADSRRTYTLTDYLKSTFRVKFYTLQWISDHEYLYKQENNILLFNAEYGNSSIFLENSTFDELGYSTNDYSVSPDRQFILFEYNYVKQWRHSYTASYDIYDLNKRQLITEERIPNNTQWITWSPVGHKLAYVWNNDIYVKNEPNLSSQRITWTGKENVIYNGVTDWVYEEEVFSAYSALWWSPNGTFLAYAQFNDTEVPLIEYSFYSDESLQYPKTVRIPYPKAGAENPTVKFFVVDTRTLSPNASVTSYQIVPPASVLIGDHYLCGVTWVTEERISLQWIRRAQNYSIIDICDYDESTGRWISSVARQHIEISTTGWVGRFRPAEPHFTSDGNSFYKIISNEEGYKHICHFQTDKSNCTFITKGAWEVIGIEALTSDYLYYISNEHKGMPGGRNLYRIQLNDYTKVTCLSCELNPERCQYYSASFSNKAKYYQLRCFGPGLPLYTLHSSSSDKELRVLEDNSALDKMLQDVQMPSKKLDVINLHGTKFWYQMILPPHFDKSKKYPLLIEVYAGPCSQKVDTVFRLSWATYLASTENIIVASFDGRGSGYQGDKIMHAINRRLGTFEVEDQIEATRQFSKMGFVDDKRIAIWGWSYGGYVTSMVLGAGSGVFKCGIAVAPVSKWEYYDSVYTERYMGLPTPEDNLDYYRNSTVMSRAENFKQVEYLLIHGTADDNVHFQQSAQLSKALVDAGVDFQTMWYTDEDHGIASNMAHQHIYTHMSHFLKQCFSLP

Structure (SMILES)	half-life at 0.1 mg/ml [1] [h]	half-life at 0.1 mg/ml (carboxypeptidase A) [h]	detected in the plasma samples (rats) (in vivo; intra duodenal administration of 1.000 nmol/kg)	detected in the plasma samples (rats) (in vivo; intra duodenal administration of 10.000 nmol/kg)	half-life at 0.1 mg/ml (leucine aminopeptidase) [h]	half-life [1] [h]	half-life (carboxypeptidase A) [h]	half-life (leucine aminopeptidase) [h]	level at time molar (in vivo; Sprague-Dawley, rat, plasma, 10 nmol/kg) [nM]
CC[C@H](C)[C@H](NC(=O)[C@H](Cc1ccccc1)NC(=O)[C@H](CCC(=O)O)NC(=O)[C@H](CCCCN)NC(=O)[C@H](C)NC(=O)[C@H](C)NC(=O)[C@H](CCC(N)=O)NC(=O)CNC(=O)[C@H](CCC(=O)O)NC(=O)[C@H](CC(C)C)NC(=O)[C@H](Cc1ccc(O)cc1)NC(=O)[C@H](CO)NC(=O)[C@H](CO)NC(=O)[C@@H](NC(=O)[C@H](CC(=O)O)NC(=O)[C@H](CO)NC(=O)[C@@H](NC(=O)[C@H](Cc1ccccc1)NC(=O)[C@@H](NC(=O)CNC(=O)[C@H](CCC(=O)O)NC(=O)CNC(=O)[C@@H](N)Cc1c[nH]cn1)[C@@H](C)O)[C@@H](C)O)C(C)C)C(=O)N[C@@H](C)C(=O)N[C@@H](Cc1c[nH]c2ccccc12)C(=O)N[C@@H](CC(C)C)C(=O)N[C@H](C(=O)N[C@@H](CCCCN)C(=O)NCC(=O)N[C@@H](CCCNC(=N)N)C(=O)N[C@@H](CCCCN)C(=O)N[C@@H](CCCCN)C(=O)N[C@@H](CCCCN)C(=O)N[C@@H](CCCCN)C(=O)N[C@@H](CCCCN)C(=O)N[C@@H](CCCCN)C(N)=O)C(C)C [Compound 4]	4.87	2.42	two out of four rats	four out of five rats	~36	–	–	–	–
CCCCCCCCCCCCCCCC(=O)NCCCC[C@H](NC(=O)[C@H](CCCNC(=N)N)NC(=O)CNC(=O)[C@H](CCCCN)NC(=O)[C@@H](NC(=O)[C@H](CC(C)C)NC(=O)[C@H](Cc1c[nH]c2ccccc12)NC(=O)[C@H](C)NC(=O)[C@@H](NC(=O)[C@H](Cc1ccccc1)NC(=O)[C@H](CCC(=O)O)NC(=O)[C@H](CCCCN)NC(=O)[C@H](C)NC(=O)[C@H](C)NC(=O)[C@H](CCC(N)=O)NC(=O)CNC(=O)[C@H](CCC(=O)O)NC(=O)[C@H](CC(C)C)NC(=O)[C@H](Cc1ccc(O)cc1)NC(=O)[C@H](CO)NC(=O)[C@H](CO)NC(=O)[C@@H](NC(=O)[C@H](CC(=O)O)NC(=O)[C@H](CO)NC(=O)[C@@H](NC(=O)[C@H](Cc1ccccc1)NC(=O)[C@@H](NC(=O)CNC(=O)[C@H](CCC(=O)O)NC(=O)CNC(=O)[C@@H](N)Cc1c[nH]cn1)[C@@H](C)O)[C@@H](C)O)C(C)C)[C@@H](C)CC)C(C)C)C(=O)N[C@@H](CCCCN)C(=O)N[C@@H](CCCCN)C(=O)N[C@@H](CCCCN)C(=O)N[C@@H](CCCCN)C(=O)N[C@@H](CCCCN)C(=O)N[C@@H](CCCCN)C(N)=O [Compound 5]	–	–	–	–	–	7.33	> 48	> 72	–
CC[C@H](C)[C@H](NC(=O)[C@H](Cc1ccccc1)NC(=O)[C@H](CCC(=O)O)NC(=O)[C@H](CCCCN)NC(=O)[C@H](C)NC(=O)[C@H](C)NC(=O)[C@H](CCC(N)=O)NC(=O)CNC(=O)[C@H](CCC(=O)O)NC(=O)[C@H](CC(C)C)NC(=O)[C@H](Cc1ccc(O)cc1)NC(=O)[C@H](CO)NC(=O)[C@H](CO)NC(=O)[C@@H](NC(=O)[C@H](CC(=O)O)NC(=O)[C@H](CO)NC(=O)[C@@H](NC(=O)[C@H](Cc1ccccc1)NC(=O)[C@@H](NC(=O)CNC(=O)[C@H](CCC(=O)O)NC(=O)CNC(=O)[C@@H](N)Cc1cnc[nH]1)[C@@H](C)O)[C@@H](C)O)C(C)C)C(=O)N[C@@H](C)C(=O)N[C@@H](Cc1c[nH]c2ccccc12)C(=O)N[C@@H](CC(C)C)C(=O)N[C@H](C(=O)N[C@@H](CCCCN)C(=O)NCC(=O)N[C@@H](CCCNC(=N)N)C(N)=O)C(C)C [Compound (iii), reference compound]	0.933	2.12	–	–	11.6	–	–	–	< 0.5

— patent USRE45313E1, “Exendin variant peptides” (priority 1999, dated 2014)
